The source of these data is patent publication US20260355196A1, “INHIBITORS AND DEGRADERS OF PIP4K PROTEIN” (Larkspur Biosciences, Inc., priority 2023, published 2026).

One experiment has as its target T1, PIP4K2C (Homo sapiens, UniProt Q8TBX8).
T1 sequence (Q8TBX8 1-421): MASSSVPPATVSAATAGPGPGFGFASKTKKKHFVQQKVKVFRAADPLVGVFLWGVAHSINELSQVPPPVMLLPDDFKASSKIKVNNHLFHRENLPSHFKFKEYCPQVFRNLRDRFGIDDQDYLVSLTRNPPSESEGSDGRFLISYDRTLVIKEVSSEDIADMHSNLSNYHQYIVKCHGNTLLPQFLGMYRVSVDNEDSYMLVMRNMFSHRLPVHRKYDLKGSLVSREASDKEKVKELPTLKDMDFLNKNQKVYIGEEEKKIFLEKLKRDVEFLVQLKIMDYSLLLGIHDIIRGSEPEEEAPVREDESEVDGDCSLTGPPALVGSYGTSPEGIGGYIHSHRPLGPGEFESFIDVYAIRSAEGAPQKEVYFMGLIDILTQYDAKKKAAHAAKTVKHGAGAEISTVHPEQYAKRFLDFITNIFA
Kind of experiment: HiBiT PIP4K2C degradation assay in MOLT-4 cells (endogenous PIP4K2C C-terminally tagged with HiBiT). It counts as cell-based. Set-up: untagged in primary human PBMCs and monocyte-derived dendritic cells. The settings on record: 24 hours incubation, MOLT-4, top concentration 10 micromolar; read-out: HiBIT-degradation MOLT4 PIP4k2C 24 hours DC50. The essentials: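 Cells are plated onto compound dilutions (10 points, 3-fold, top 10 micromolar) and incubated 24 or 6 hours at 37 C. Lytic HiBiT detection then quantifies tagged endogenous PIP4K2C in MOLT-4, and a Hill fit yields DC50.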
As for `Cn1nc(C2CCC(=O)NC2=O)c2ccc(C3CCN(CCC4CCN(C(=O)[C@@H]5CCC[C@H](Nc6ncc(F)c(-c7cccc(-n8ccccc8=O)c7)n6)C5)CC4)CC3)cc21` (stereo partly drawn) [Compound 351, 3-(6-(1-(2-(1-((1R,3S)-3-((5-fluoro-4-(3-(2-oxopyridin-1(2H)-yl)phenyl)pyrimidin-2-yl)amino)cyclohexane-1-carbonyl)piperidin-4-yl)ethyl)piperidin-4-yl)-1-methyl-1H-indazol-3-yl)piperidine-2,6-dione], the DC50 was less than 500 nM.
With `O=C1CCC(n2c(=O)oc3cc(C4CCN(C5CCN(CCC(=O)N6CCC(Nc7ncc(F)c(-c8cccc(-n9ccccc9=O)c8)n7)CC6)CC5)CC4)ccc32)C(=O)N1` (stereo not shown) [Compound 353, 3-(6-(1′-(3-(4-((5-fluoro-4-(3-(2-oxopyridin-1(2H)-yl)phenyl)pyrimidin-2-yl)amino)piperidin-1-yl)-3-oxopropyl)-[1,4′-bipiperidin]-4-yl)-2-oxobenzo[d]oxazol-3 (2H)-yl)piperidine-2,6-dione], the DC50 was less than 500 nM.
`Cc1ccc(=O)n(-c2cccc(-c3nc(N[C@H]4CCC[C@@H](C(=O)N5CCC(CCN6CCC(c7ccc8c(c7)oc(=O)n8C7CCC(=O)NC7=O)CC6)CC5)C4)ncc3F)c2)c1` (stereo partly drawn) [Compound 354, 3-(6-(1-(2-(1-((1R,3S)-3-((5-fluoro-4-(3-(5-methyl-2-oxopyridin-1(2H)-yl)phenyl)pyrimidin-2-yl)amino)cyclohexane-1-carbonyl)piperidin-4-yl)ethyl)piperidin-4-yl)-2-oxobenzo[d]oxazol-3 (2H)-yl)piperidine-2,6-dione]: the DC50 was less than 500 nM.
Still for that read-out and setting: with `O=C1CCC(n2c(=O)oc3cc(C4CCN(CCC5CCN(C(=O)[C@@H]6CCC[C@H](Nc7ncc(F)c(-c8cccc(N9CCCOC9=O)c8)n7)C6)CC5)CC4)ccc32)C(=O)N1` (stereo partly drawn) [Compound 355, 3-(6-(1-(2-(1-((1R,3S)-3-((5-fluoro-4-(3-(2-oxo-1,3-oxazinan-3-yl)phenyl)pyrimidin-2-yl)amino)cyclohexane-1-carbonyl)piperidin-4-yl)ethyl)piperidin-4-yl)-2-oxobenzo[d]oxazol-3 (2H)-yl)piperidine-2,6-dione] the figure was 500 to 1000 nM.
With `O=C1CCC(n2c(=O)oc3cc(C4CCN(CCC5CCN(C(=O)[C@@H]6CCC[C@H](Nc7ncc(F)c(-c8cccc(N9CCCCC9=O)c8)n7)C6)CC5)CC4)ccc32)C(=O)N1` (stereo partly drawn) [Compound 356, 3-(6-(1-(2-(1-((1R,3S)-3-((5-fluoro-4-(3-(2-oxopiperidin-1-yl)phenyl)pyrimidin-2-yl)amino)cyclohexane-1-carbonyl)piperidin-4-yl)ethyl)piperidin-4-yl)-2-oxobenzo[d]oxazol-3 (2H)-yl)piperidine-2,6-dione], the DC50 was less than 500 nM.
Same read-out and setting: next, `O=C1CCC(n2c(=O)oc3cc(C4CCN(CCC5CCN(C(=O)[C@@H]6CCC[C@H](Nc7ncc(F)c(-c8cccc(-n9cc(C(F)(F)F)ccc9=O)c8)n7)C6)CC5)CC4)ccc32)C(=O)N1` (stereo partly drawn) [Compound 357, 3-(6-(1-(2-(1-((1R,3S)-3-((5-fluoro-4-(3-(2-oxo-5-(trifluoromethyl)pyridin-1(2H)-yl)phenyl)pyrimidin-2-yl)amino)cyclohexane-1-carbonyl)piperidin-4-yl)ethyl)piperidin-4-yl)-2-oxobenzo[d]oxazol-3 (2H)-yl)piperidine-2,6-dione]: less than 500 nM; `O=C1CCC(n2c(=O)oc3cc(N4CCC(CN5CCC(CC(=O)N[C@H]6CC[C@H](Nc7ncc(F)c(-c8cccc(-n9ccccc9=O)c8)n7)CC6)CC5)CC4)ccc32)C(=O)N1` (stereo partly drawn) [Compound 358, trans-2-(1-((1-(3-(2,6-dioxopiperidin-3-yl)-2-oxo-2,3-dihydrobenzo[d]oxazol-6-yl)piperidin-4-yl)methyl)piperidin-4-yl)-N-(4-((5-fluoro-4-(3-(2-oxopyridin-1(2H)-yl)phenyl)pyrimidin-2-yl)amino)cyclohexyl)acetamide]: less than 500 nM.
Take `O=C1CCC(n2c(=O)oc3cc(N4CCC(CN5CCN(CC(=O)N[C@H]6CC[C@H](Nc7ncc(F)c(-c8cccc(-n9ccccc9=O)c8)n7)CC6)CC5)CC4)ccc32)C(=O)N1` (stereo partly drawn) [Compound 360, 2-(4-((1-(3-(2,6-dioxopiperidin-3-yl)-2-oxo-2,3-dihydrobenzo[d]oxazol-6-yl)piperidin-4-yl)methyl)piperazin-1-yl)-N-(trans-4-((5-fluoro-4-(3-(2-oxopyridin-1(2H)-yl)phenyl)pyrimidin-2-yl)amino)cyclohexyl)acetamide]: the DC50 was less than 500 nM.
For the molecule `O=C1CCC(n2c(=O)oc3cc(C4CCN(CC5CCN(CC(=O)N[C@H]6CC[C@H](Nc7ncc(F)c(-c8cccc(N9CCCOC9=O)c8)n7)CC6)CC5)CC4)ccc32)C(=O)N1` (stereo partly drawn) [Compound 362, trans-2-(4-((4-(3-(2,6-dioxopiperidin-3-yl)-2-oxo-2,3-dihydrobenzo[d]oxazol-6-yl)piperidin-1-yl)methyl)piperidin-1-yl)-N-(4-((5-fluoro-4-(3-(2-oxo-1,3-oxazinan-3-yl)phenyl)pyrimidin-2-yl)amino)cyclohexyl)acetamide], the DC50 is less than 500 nM.
Consider `O=C1CCC(n2c(=O)oc3cc(C4CCN(CC5CCN(CC(=O)N[C@H]6CC[C@H](Nc7ncc(F)c(-c8cccc(N9CCOC9=O)c8)n7)CC6)CC5)CC4)ccc32)C(=O)N1` (stereo partly drawn) [Compound 363, trans-2-[4-[[4-[3-(2,6-dioxo-3-piperidyl)-2-oxo-1,3-benzoxazol-6-yl]-1-piperidyl]methyl]-1-piperidyl]-N-[4-[[5-fluoro-4-[3-(2-oxooxazolidin-3-yl)phenyl]pyrimidin-2-yl]amino]cyclohexyl]acetamide], for which the DC50 was less than 500 nM.
As for `O=C1CCC(Nc2ccc(C3CCN(CC4CCN(CC(=O)N5CCC(Nc6ncc(F)c(-c7cccc(-c8ccc[nH]c8=O)c7)n6)CC5)CC4)CC3)c(F)c2)C(=O)N1` (stereo not shown) [Compound 364, 3-((3-fluoro-4-(1-((1-(2-(4-((5-fluoro-4-(3-(2-oxo-1,2-dihydropyridin-3-yl)phenyl)pyrimidin-2-yl)amino)piperidin-1-yl)-2-oxoethyl)piperidin-4-yl)methyl)piperidin-4-yl)phenyl)amino)piperidine-2,6-dione], the DC50 was less than 500 nM.
With `O=C1CCC(Nc2ccc(C3CCN(CC4CCN(CC(=O)N[C@H]5CC[C@H](Nc6ncc(F)c(-c7cccc(-c8ccc[nH]c8=O)c7)n6)CC5)CC4)CC3)c(F)c2)C(=O)N1` (stereo partly drawn) [Compound 365, trans-2-(4-((4-(4-((2,6-dioxopiperidin-3-yl)amino)-2-fluorophenyl)piperidin-1-yl)methyl)piperidin-1-yl)-N-(4-((5-fluoro-4-(3-(2-oxo-1,2-dihydropyridin-3-yl)phenyl)pyrimidin-2-yl)amino)cyclohexyl)acetamide], the DC50 is less than 500 nM.
Turning to `O=C1CCC(n2c(=O)oc3cc(C4CCN(CC5CCN(C(=O)CN6CCC(Nc7ncc(F)c(-c8cccc(-c9ccccc9)c8)n7)CC6=O)CC5)CC4)ccc32)C(=O)N1` (stereo not shown) [Compound 366, 3-(6-(1-((1-(2-(4-((4-([1,1′-biphenyl]-3-yl)-5-fluoropyrimidin-2-yl)amino)-2-oxopiperidin-1-yl)acetyl)piperidin-4-yl)methyl)piperidin-4-yl)-2-oxobenzo[d]oxazol-3 (2H)-yl)piperidine-2,6-dione], the DC50 is less than 500 nM.
With `O=C1CCC(n2c(=O)oc3cc(C4CCN(CC5CCN(C(=O)CN6CCC(Nc7ncc(F)c(-c8cccc(-n9ccccc9=O)c8)n7)CC6=O)CC5)CC4)ccc32)C(=O)N1` (stereo not shown) [Compound 367, 3-(6-(1-((1-(2-(4-((5-fluoro-4-(3-(2-oxopyridin-1(2H)-yl)phenyl)pyrimidin-2-yl)amino)-2-oxopiperidin-1-yl)acetyl)piperidin-4-yl)methyl)piperidin-4-yl)-2-oxobenzo[d]oxazol-3 (2H)-yl)piperidine-2,6-dione], the DC50 was less than 500 nM.
On to `O=C1CCC(n2c(=O)oc3cc(C4CCN(CCC5CCN(C(=O)[C@H]6CC[C@H](Nc7ncc(F)c(-c8cccc(-c9ccc[nH]c9=O)c8)n7)CC6)CC5)CC4)ccc32)C(=O)N1` (stereo partly drawn) [Compound 368, 3-(6-(1-(2-(1-(trans-4-((5-fluoro-4-(3-(2-oxo-1,2-dihydropyridin-3-yl)phenyl)pyrimidin-2-yl)amino)cyclohexane-1-carbonyl)piperidin-4-yl)ethyl)piperidin-4-yl)-2-oxobenzo[d]oxazol-3 (2H)-yl)piperidine-2,6-dione], for which the DC50 was less than 500 nM.

The experiment is the same for the next values; noted with them: read-out: HiBIT-degradation MOLT4 PIP4k2C 24 hours DC50; 24 hours incubation, MOLT-4, top concentration 10 micromolar.
With `O=C1CCC(n2c(=O)oc3cc(C4CCN(CC5CCN(CC(=O)N[C@H]6CC[C@H](Nc7ncc(F)c(C8CCCN(C(=O)C9CC9)C8)n7)CC6)CC5)CC4)ccc32)C(=O)N1` (stereo partly drawn) [Compound 359, trans-N-(4-((4-(1-(cyclopropanecarbonyl)piperidin-3-yl)-5-fluoropyrimidin-2-yl)amino)cyclohexyl)-2-(4-((4-(3-(2,6-dioxopiperidin-3-yl)-2-oxo-2,3-dihydrobenzo[d]oxazol-6-yl)piperidin-1-yl)methyl)piperidin-1-yl)acetamide], the DC50 was less than 500 nM.
